Test results: patent publication US12415785B2, “Compound modulators of sting” (CTXT PTY LTD, priority 2019, dated 2025)

Key:
human STING (WT) [1] = target: T1, human STING (WT) (Homo sapiens (Human), UniProt Q86WV6, H232R); assay: Surface plasmon resonance (SPR), STING (WT); type: binding; conditions: biotinylated STING on streptavidin chip, 8° C.
Protocol: Biophysical experiments were performed with three different recombinant human STING protein variants designated according to allelic nomenclature of Yi et al., (2013). Codon optimized DNA sequences (for expression in Escherichia coli) encoding amino acid residues 149 to 345 (Swiss Prot Q86WV6) of human STING (WT), human STING (HAQ) and human STING (R232H) were synthesised by GenScript USA Inc (Piscataway, New Jersey, USA). These were ligated into a modified pET43a E. coli expression vector designed to encode N-terminal His tag followed by tobacco etch virus protease (TEV) cleavage site and a STING gene sequence. The resulting protein sequences for the three allelic variants are listed below:
Binding interactions of ligands with STING proteins were quantified using Surface Plasmon Resonance (SPR) with a minimally biotinylated STING protein immobilized on a streptavidin chip surface. […] Minimal biotinylation of purified huSTING proteins was performed using a previously described methodology (Chhabra 2012). Briefly, approximately 20 nmol of recombinant STING protein in 1×TBS buffer (25 mM Tris-HCl, pH 7.5, 150 mM NaCl, 5 mM DTT) was mixed with of EZ-Link™ Sulfo-NHS-LC-LC-Biotin (Thermofisher Scientific, cat #21338) at a molar ratio of 1 to 0.6 and incubated on ice for 2 hours. To remove any unreacted biotin reagent, protein/biotin mixture was passed through a Superdex 75 (10/300 GL) column equilibrated with 10 mM HEPES, pH7.4, 150 mM NaCl, 5 mM DTT, 5%[v/v] glycerol. A protein peak containing biotinylated huSTING protein was collected and stored in aliquots at −80° C.
Streptavidin was simultaneously immobilized in all four channels of a CM5 sensor chip docked in a Biacore instrument (either Biacore S200 or Biacore T200, GE Healthcare) as described previously (Zender 2013). Minimally biotinylated STING protein was captured onto a streptavidin coated chip surface at 8° C. in SPR binding buffer (50 mM HEPES, pH 7.4, 150 mM NaCl, 2%[v/v] DMSO) by gradually injecting in a single channel at a constant flow-rate of 2 μL/min until desired capture level was achieved, typically 3000 to 7000 RU (1 RU=1 pg/mm^2).
All binding experiments were performed at 8° C. in SPR binding buffer. To determine binding affinity, compound interaction with immobilized STING protein was analysed using dose-response experiments. Fresh 10 mM DMSO solutions of compound were diluted directly into SPR binding buffer typically to a concentration of 50 μM and then further diluted 2-fold or 3-fold aiming for either a 5- or 7-point concentration series range. Each ligand concentration series was injected at a constant flow rate of 60 μL/min with a 90 second association and a 180 second dissociation time. These were modified for compounds with longer residence times, so that curves could reach steady-state, or so that compound would be fully dissociated before the subsequent injection.
Scrubber 2 (www.biologic.com.au) was utilized for data processing, where signals were referenced against the blank surface (streptavidin+D-biotin) and further corrected for DMSO refractive index change and then “double-referenced” using a buffer-blank injection (Papalia 2006). Responses were fitted to either a 1:1 steady-state affinity model or a 1:1 kinetic model (that included a mass-transport component), available within Scrubber.

human STING (WT) [2] = target: T1, human STING (WT); assay: Differential scanning fluorimetry (DSF), huSTING (WT); type: binding; conditions: 2 μM protein, compound 100 μM, Tm with ligand minus Tm of protein alone (1% DMSO); for ΔTm at 100 µM: read-out: DSF huSTING (WT) ΔTm (° C.)
Protocol: Biophysical experiments were performed with three different recombinant human STING protein variants designated according to allelic nomenclature of Yi et al., (2013). […] These were ligated into a modified pET43a E. coli expression vector designed to encode N-terminal His tag followed by tobacco etch virus protease (TEV) cleavage site and a STING gene sequence. The resulting protein sequences for the three allelic variants are listed below: […] Cultures were then cooled to 16° C. and protein expression induced by the addition of isopropyl β-D-1-thiogalactopyranoside to a final concentration of 0.5 mM and the cultures shaken overnight for further 16 hours. Following expression, cell cultures were centrifuged at 5000×g for 20 min and cell pellet stored frozen at −70° C. Protein purification was initiated by thawing the cell pellet in Lysis buffer (25 mM Tris-HCl pH 8.0, 300 mM NaCl, 5 mM DTT, 2 mM MgCl2, 10 mM imidazole, 0.5 mg/ml lysozyme, benzonase endonuclease [EMD Millipore], 1 mM PMSF, complete protease inhibitor tablets EDTA-free [Roche]) using a ratio of 7 ml of buffer per 1 g of cells. Cells were further lysed by 3 passes through an ice cooled Avestin C5 cell crusher and then centrifuged at 48,000×g at 4° C. […] The IMAC column was then sequentially washed with IMAC Wash buffer 1 and IMAC Wash buffer 2 (25 mM Tris-HCl pH 8.0, 300 mM NaCl, 5 mM DTT, 20 mM Imidazole) and bound His-TEV-hSTING protein eluted with IMAC Elution buffer (25 mM Tris-HCl pH 8.0, 300 mM NaCl, 5 mM DTT, 250 mM Imidazole). […] Differential scanning fluorimetry (DSF) is a rapid screening method for identifying low-molecular-weight ligands that bind and, in doing so, stabilize (or sometimes destabilize) purified proteins (Niesen 2007). DSF monitors thermal unfolding of protein in the presence of a fluorescent dye and is typically performed using a real-time PCR instrument. The temperature at which a protein unfolds is measured by an increase in the fluorescence of a dye with affinity for hydrophobic parts of the protein that are gradually being exposed during unfolding. The fluorescence of the dye is quenched in aqueous environments, but when the dye associates with hydrophobic sites on unfolded protein, its fluorescence increases. The fluorescence intensity is plotted as a function of the temperature, generating a sigmoidal curve that can be described by a two-state transition. The inflection point of the transition curve (Tm) is calculated using simple equations such as that of Boltzmann. Thermal stability of STING protein (with and without bound ligand) was measured using previously described methodology (Seabrook & Newman, 2013), with samples tested in triplicate using 96-well PCR microplate (AB Gene, ABGAB-0600/W). […] Sealed plates were placed into Bio-Rad CFX96/C1000 thermocycler and FRET scanning mode (λ^excitation of 490 nm and reads at a λ^emission of 570 nm). Melting curves were recorded from 20° C. to 100° C. in 0.5° C. increments every 30 seconds with a read at each increment. Data were analysed using “Meltdown analysis” protocol described by Rosa (2015).

T1 sequence (Q86WV6 other isoform, or with tags, fused parts or gaps, stated change not applied): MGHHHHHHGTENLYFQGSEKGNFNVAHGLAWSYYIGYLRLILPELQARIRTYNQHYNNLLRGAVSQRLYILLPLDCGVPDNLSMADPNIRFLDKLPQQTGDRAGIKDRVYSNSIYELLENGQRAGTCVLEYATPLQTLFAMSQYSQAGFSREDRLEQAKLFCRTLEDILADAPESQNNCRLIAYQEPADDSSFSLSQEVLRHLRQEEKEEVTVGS

SMILES | Kd (human STING (WT) [1]) [µM] | ΔTm at 100 µM (human STING (WT) [2]) [°C] | DSF huSTING (WT) ΔTm (° C.) (human STING (WT) [2]) [°C]
COc1c(C(N)=O)ccc2c1nc(-c1ccc(Cl)cc1-c1n[nH]c(=O)o1)n2CCn1c(-c2ccc(Cl)cc2-c2n[nH]c(=O)o2)nc2c(OC)c(C(N)=O)ccc21 [Example 17, 1,1′-(Ethane-1,2-diyl)bis(2-(4-chloro-2-(5-oxo-4,5-dihydro-1,3,4-oxadiazol-2-yl)phenyl)-4-methoxy-1H-benzo[d]imidazole-5-carboxamide)] | 9.5 | 3.05 | 
COc1c(C(N)=O)ccc2c1nc(-c1ncc(Cl)cc1C(=O)O)n2CCn1c(-c2ncc(Cl)cc2C(=O)O)nc2c(OC)c(C(N)=O)ccc21 [Example 31, 2,2′-(Ethane-1,2-diylbis(5-carbamoyl-4-methoxy-1H-benzo[d]imidazole-1,2-diyl))bis(5-chloronicotinic acid)] | 88 | 0.18 | 
NC(=O)c1ccc2c(c1)nc(-c1cc(Br)ccc1C(=O)O)n2CCn1c(-c2cc(Br)ccc2C(=O)O)nc2cc(C(N)=O)ccc21 [Example 3, 2,2′-(Ethane-1,2-diylbis(5-carbamoyl-1H-benzo[d]imidazole-1,2-diyl))bis(4-bromobenzoic acid)] | 700 | -0.02 | 
COc1c(C(N)=O)ccc2c1nc(-c1cccc(Cl)c1-c1nn[nH]n1)n2CCn1c(-c2cccc(Cl)c2-c2nn[nH]n2)nc2c(OC)c(C(N)=O)ccc21 [Example 40, 1,1′-(Ethane-1,2-diyl)bis(2-(3-chloro-2-(2H-tetrazol-5-yl)phenyl)-4-methoxy-1H-benzo[d]imidazole-5-carboxamide)] | 180 | -7.45 | 
COc1c(C(N)=O)ccc2c1nc(-c1cc(C)ccc1C(=O)O)n2CCn1c(-c2cc(C)ccc2C(=O)O)nc2c(OC)c(C(N)=O)ccc21 [Example 26, 2,2′-(Ethane-1,2-diylbis(5-carbamoyl-4-methoxy-1H-benzo[d]imidazole-1,2-diyl))bis(4-methylbenzoic acid)] | > 40 | 1.13 | 
COc1c(C(N)=O)ccc2c1nc(-c1ccccc1-c1nn[nH]n1)n2CCn1c(-c2ccccc2-c2nn[nH]n2)nc2c(OC)c(C(N)=O)ccc21 [Example 6, 1,1′-(Ethane-1,2-diyl)bis(2-(2-(2H-tetrazol-5-yl)phenyl)-4-methoxy-1H-benzo[d]imidazole-5-carboxamide)] | 40 | 0.94 | 
COc1c(C(N)=O)ccc2c1nc(-c1c(Cl)cccc1-c1nn[nH]n1)n2CCn1c(-c2c(Cl)cccc2-c2nn[nH]n2)nc2c(OC)c(C(N)=O)ccc21 (single isomer, unassigned) [Example 23, 1,1′-(Ethane-1,2-diyl)bis(2-(2-chloro-6-(2H-tetrazol-5-yl)phenyl)-4-methoxy-1H-benzo[d]imidazole-5-carboxamide)] | 0.043 | 15 | 
COc1c(C(N)=O)ccc2c1nc(-c1c(F)cc(F)cc1C(=O)O)n2CCn1c(-c2c(F)cc(F)cc2C(=O)O)nc2c(OC)c(C(N)=O)ccc21 [Example 16, 2,2′-(Ethane-1,2-diylbis(5-carbamoyl-4-methoxy-1H-benzo[d]imidazole-1,2-diyl))bis(3,5-difluorobenzoic acid)] | 1.52 | 7.95 | 
COc1c(C(N)=O)ccc2c1nc(-c1cnccc1C(=O)O)n2CCn1c(-c2cnccc2C(=O)O)nc2c(OC)c(C(N)=O)ccc21 [Example 30, 3,3′-(Ethane-1,2-diylbis(5-carbamoyl-4-methoxy-1H-benzo[d]imidazole-1,2-diyl))diisonicotinic acid] | 126 | 0.29 | 
COc1c(C(N)=O)ccc2c1nc(-c1cccc(Br)c1C(=O)O)n2CCn1c(-c2cccc(Br)c2C(=O)O)nc2c(OC)c(C(N)=O)ccc21 [Example 36, 6,6′-(Ethane-1,2-diylbis(5-carbamoyl-4-methoxy-1H-benzo[d]imidazole-1,2-diyl))bis(2-bromobenzoic acid)] | 58 | 2.04 | 
COc1c(C(N)=O)ccc2c1nc(-c1c(F)cc(F)cc1-c1nn[nH]n1)n2CCn1c(-c2c(F)cc(F)cc2-c2nn[nH]n2)nc2c(OC)c(C(N)=O)ccc21 [Example 43, 1,1′-(Ethane-1,2-diyl)bis(2-(2,4-difluoro-6-(2H-tetrazol-5-yl)phenyl)-4-methoxy-1H-benzo[d]imidazole-5-carboxamide)] | 1.79 | 9.87 | 
NC(=O)c1ccc2c(c1)nc(-c1c(Br)cccc1C(=O)O)n2CCn1c(-c2c(Br)cccc2C(=O)O)nc2cc(C(N)=O)ccc21 (single isomer, unassigned) [Example 29.1, 2,2′-(Ethane-1,2-diylbis(5-carbamoyl-1H-benzo[d]imidazole-1,2-diyl))bis(3-bromobenzoic acid)] | 33 |  | −0.07
COC(=O)c1c(Br)cccc1-c1nc2c(OC)c(C(N)=O)ccc2n1CCn1c(-c2cccc(Br)c2C(=O)OC)nc2c(OC)c(C(N)=O)ccc21 [Example 21, Dimethyl 6,6′-(ethane-1,2-diylbis(5-carbamoyl-4-methoxy-1H-benzo[d]imidazole-1,2-diyl))bis(2-bromobenzoate)] | 5.38 | 2.33 | 
COc1c(C(N)=O)ccc2c1nc(-c1ccc(Cl)c(Cl)c1-c1nn[nH]n1)n2CCn1c(-c2ccc(Cl)c(Cl)c2-c2nn[nH]n2)nc2c(OC)c(C(N)=O)ccc21 [Example 37, 1,1′-(Ethane-1,2-diyl)bis(2-(3,4-dichloro-2-(2H-tetrazol-5-yl)phenyl)-4-methoxy-1H-benzo[d]imidazole-5-carboxamide)] |  | -0.24 | 
